We go through three compounds from US7312210B2, “Pyrrolo[2,1-c][1,4]benzodiazepine compounds and processes for the preparation thereof” (Council of Scientific and Industrial Research, priority 2005, dated 2007).

Experiment [1] deals with Breast cancer cell lines. Kind of experiment: NCI in vitro cytotoxicity screen (SRB assay), breast cell lines. Format: cell-based, human. To be noted: average of six to nine different cancer cell lines, 48 h exposure. How it is done: (§1) Biological Activity: In vitro biological activity studies were carried out at the National Cancer Institute (USA).
(§2) Cytotoxicity: The compounds 7-methoxy-8-{5-[4-(2-oxo-2H-4-chromenyl)piperazino]pentyl}-oxy-(11aS)-1,2,3,11a-5H-pyrrolo[2,1-c][1,4]benzodiazepin-5-one, 7-methoxy-8-{3-[4-(7-methoxy-8-methyl-2-oxo-2H-4-chromenyl)piperazino]propyl}-oxy-(11aS)-1,2,3,11a-5H-pyrrolo[2,1-c][1,4]benzodiazepin-5-one and 7-methoxy-8-{5-[4-(7-methoxy-8-methyl-2-oxo-2H-4-chromenyl)piperazino]pentyl}-oxy-(11aS)-1,2,3,11a-5H-pyrrolo[2,1-c][1,4]benzodiazepin-5-one were evaluated for in vitro anticancer activity against sixty human tumor cells derived from […] (leukemia, non-small-cell lung, colon, CNS, melanoma, ovarian, prostate, and breast cancer) as shown in (Table 2). For each compound, dose response curves for each cell line were measured at a minimum of five concentrations at 10 fold dilutions. A protocol of 48 h continuous drug exposure was used and a sulforhodamine B (SRB) protein assay was used to estimate cell viability or growth. The concentration causing 50% cell growth inhibition (GI50), total cell growth inhibition (TGI 0% growth) and 50% cell death (LC50, −50% growth) compared with the control was calculated.
(§3) Each cancer type represents the average of six to nine different cancer cell lines.
Background: Sulforhodamine B stains cellular protein and so reports cell mass.

Experiment [2] has as its system Melanoma cancer cell lines. Kind of experiment: NCI in vitro cytotoxicity screen (SRB assay), melanoma cell lines. The experiment is classed as cell-based, human. As to conditions: average of six to nine different cancer cell lines, 48 h exposure. The protocol:
as §1, §2, §3

Experiment [3] has as its system Prostate cancer cell lines. Kind of experiment: NCI in vitro cytotoxicity screen (SRB assay), prostate cell lines. Format: cell-based, human. To be noted: average of six to nine different cancer cell lines, 48 h exposure. How it is done:
as §1, §2, §3

The subject of experiment [4] is CNS cancer cell lines. Kind of experiment: NCI in vitro cytotoxicity screen (SRB assay), CNS cell lines. As to conditions: average of six to nine different cancer cell lines, 48 h exposure. Format: cell-based, human. How it is done: as §1, §2, §3
Experiment [5] relates to Leukemia cancer cell lines. Kind of experiment: NCI in vitro cytotoxicity screen (SRB assay), leukemia cell lines. Format: cell-based, human. To be noted: average of six to nine different cancer cell lines, 48 h exposure. The protocol: as §1, §2, §3
Experiment [6] deals with Renal cancer cell lines. Kind of experiment: NCI in vitro cytotoxicity screen (SRB assay), renal cell lines. As to conditions: average of six to nine different cancer cell lines, 48 h exposure. Format: cell-based, human. The protocol: as §1, §2, §3
The subject of experiment [7] is Non-small-cell-lung cancer cell lines. Kind of experiment: NCI in vitro cytotoxicity screen (SRB assay), non-small-cell-lung cell lines. The experiment is classed as cell-based, human. To be noted: average of six to nine different cancer cell lines, 48 h exposure. How it is done:
as §1, §2, §3

Experiment [8] relates to Ovarian cancer cell lines. Kind of experiment: NCI in vitro cytotoxicity screen (SRB assay), ovarian cell lines. As to conditions: average of six to nine different cancer cell lines, 48 h exposure. The experiment is classed as cell-based, human. How it is done: as §1, §2, §3
Experiment [9] relates to Colon cancer cell lines. Kind of experiment: NCI in vitro cytotoxicity screen (SRB assay), colon cell lines. Format: cell-based, human. To be noted: average of six to nine different cancer cell lines, 48 h exposure. How it is done: as §1, §2, §3
For experiment [10], the system named is sixty human tumor cells derived from nine cancer types. Kind of experiment: NCI in vitro cytotoxicity screen (SRB assay), mean graph midpoints over all cell lines. The experiment is classed as cell-based. To be noted: for Log10LC50 mean graph midpoint (MG_MID): 50% cell death (−50% growth); for Log10LC50 mean graph midpoint (MG_MID) / Log10GI50 mean graph midpoint (MG_MID) / Log10TGI mean graph midpoint (MG_MID): 48 h continuous drug exposure, SRB protein assay, human tumor cell lines; for Log10GI50 mean graph midpoint (MG_MID): 50% cell growth inhibition; for Log10TGI mean graph midpoint (MG_MID): total cell growth inhibition (0% growth). The protocol:
as §1, §2

Take `COc1cc2c(cc1OCCCCCN1CCN(c3cc(=O)oc4ccccc34)CC1)N=C[C@@H]1CCCN1C2=O` [Compound 5c, 7-Methoxy-8-{5-[4-(2-oxo-2H-4-chromenyl)piperazino]pentyl}-oxy-(11aS)-1,2,3,11a-5H-pyrrolo[2,1-c][1,4]benzodiazepin-5-one]: the “Log10LC50 concentration in mol/L causing 50% lethality” value in experiment [1] is −4.71 mol/L; in experiment [2], −5.68 mol/L; in experiment [3] it was −4.53 mol/L; in experiment [4], −4.70 mol/L; in experiment [5], −5.03 mol/L; in experiment [6] it was −5.26 mol/L. Moreover, the “Log10LC50 concentration in mol/L causing 50% lethality” value in experiment [7] is given as −4.92 mol/L; in [8], −5.44 mol/L; in [9], −5.24 mol/L. Besides, the “Log10LC50 mean graph midpoint (MG_MID)” value in experiment [10] is reported as −4.99. The “Log10GI50 mean graph midpoint (MG_MID)” value in [10] is −7.68. Also, the “Log10TGI mean graph midpoint (MG_MID)” value in [10] is −6.66. In addition, in experiment [10] (various cell lines), the “mean graph pattern: profile of activity and selectivity” value was “interesting profile of activity and selectivity for various cell lines”.

For the compound `COc1cc2c(cc1OCCCN1CCN(c3cc(=O)oc4c(C)c(OC)ccc34)CC1)N=C[C@@H]1CCCN1C2=O` [Compound 5d, 7-Methoxy-8-{3-[4-(7-methoxy-8-methyl-2-oxo-2H-4-chromenyl)piperazino]propyl}-oxy-(11aS)-1,2,3,11a-5H-pyrrolo[2,1-c][1,4]benzodiazepin-5-one], the “Log10LC50 concentration in mol/L causing 50% lethality” value in [1] is −4.11 mol/L; in [2] it was −4.34 mol/L; in [3] it was −4.00 mol/L; in [4], −4.11 mol/L; in [5], −4.22 mol/L; in [6] it was −5.29 mol/L. The “Log10LC50 concentration in mol/L causing 50% lethality” value is recorded as −4.23 mol/L in experiment [7], −4.00 mol/L in experiment [8] and −4.87 mol/L in experiment [9]. Besides, in experiment [10], the “Log10LC50 mean graph midpoint (MG_MID)” value is on record as −4.19. The “Log10GI50 mean graph midpoint (MG_MID)” value in [10] was −5.68. Moreover, the “Log10TGI mean graph midpoint (MG_MID)” value in experiment [10] is listed as −4.86.

As for `COc1cc2c(cc1OCCCCCN1CCN(c3cc(=O)oc4c(C)c(OC)ccc34)CC1)N=C[C@@H]1CCCN1C2=O` [Compound 5f, 7-Methoxy-8-{5-[4-(7-methoxy-8-methyl-2-oxo-2H-4-chromenyl)piperazino]pentyl}-oxy-(11aS)-1,2,3,11a-5H-pyrrolo[2,1-c][1,4]benzodiazepin-5-one], the “Log10LC50 concentration in mol/L causing 50% lethality” value in [1] is −4.52 mol/L; in experiment [2], −5.29 mol/L; in experiment [3] it was −4.85 mol/L; in experiment [4], −4.63 mol/L; in experiment [5], −5.39 mol/L; in experiment [6], −5.17 mol/L. Moreover, the “Log10LC50 concentration in mol/L causing 50% lethality” value in experiment [7] is −4.87 mol/L; in [8] it was −4.28 mol/L; in [9] it was −5.41 mol/L. In experiment [10], the “Log10LC50 mean graph midpoint (MG_MID)” value is recorded as −4.96. Besides, in experiment [10], the “Log10GI50 mean graph midpoint (MG_MID)” value is on record as −6.49. Besides, the “Log10TGI mean graph midpoint (MG_MID)” value in experiment [10] is −5.85.
